Measured values as given in patent publication US10203330B2, “Methods and materials for identifying and treating mammals having lung adenocarcinoma characterized by neuroendocrine differentiation” (Mayo Foundation for Medical Education and Research, priority 2013, dated 2019).
Entries after “also recorded” stand apart in the source; their conditions may differ.

What was measured:
Assay type in all cases: cell-based
[1] = tested on: A549 cells and A549-ASCL1 cells; assay: Clonogenic number of A549 and A549-ASCL1 cells after cisplatin treatment; details: ASCL1 over-expressing cells versus cells not expressing ASCL1; 0, 3 or 9 μM cisplatin for 14 days, FIG. 15
ASCL1 = ASCL1 knock down in HCC1833 cells, ASCL1 and RET expression; details: HCC1833 cells transfected with the construct, FIG. 13 left
Description: Two cell lines are used to confirm the effectiveness of drugs for treating lung adenocarcinoma characterized by neuroendocrine differentiation. The first is the HCC1833 cell line, which was derived from lung AD and has high expression levels of ASCL1 and RET. The second in the A549 cell line which has low endogenous expression of ASCL1 and is stably transfected with ASCL1 (A549-As^+). A549-As^+ captures salient features of ASCL1^+ lung AD from patients, including increased expression of RET. HCC1833 are stably transfected with ASCL1 siRNA to knock down ASCL1 and produce a HCC1833-AsKD cell line. Lowering ASCL1 expression leads to low levels of RET expression.
(§1) The HCC1833 adenocarcinoma cell line expressed high endogenous levels of ASCL1 and RET (FIG. 13, left). […] In addition, STAT3 expression (in JAK/STAT3 pathway) went down.

HCC1833 cells = assay: Filling the gap scratch assay; details: HCC1833 cells transfected with ASCL1 shRNA versus wild-type and control vector cells, day 3, FIG. 14; listed as ASCL1-sh2
Description: FIG. 14 contains photographs of cells from a filling the gap scratch assay (see, e.g., Liang et al., Nature Protocols, 2:329-333 (2007)).
as §1

Molecule	remaining clonogenic potential after cisplatin treatment [1]	ASCL1 expression (ASCL1)	RET expression (ASCL1)	ability to fill the gap (migration capacity) (HCC1833 cells)
N.N.[Cl][Pt][Cl] [cisplatin]	higher than in cells that did not express ASCL1			
sh1: a small interfering RNA construct that includes: GCCAACAAGAAGATGAGTAAG (SEQ ID NO: 1) (listed as DNA, chemistry not given here)		reduced ASCL1 expression	reduced	
sh2: a small interfering RNA construct that includes: CAACCGCGTCAAGTTGGTCAA (SEQ ID NO:2) (listed as DNA, chemistry not given here)		reduced ASCL1 expression	reduced	much slower ability to filling the gap; also recorded: did not fill as much of the gap
